Experimental data taken from article PMC10952433, “A Chemoenzymatic Approach To Produce a Cyclic Analogue of the Analgesic Drug MVIIA (Ziconotide)” (Angewandte Chemie (International Ed. in English), 2023).

How the values were obtained:
[1] = biological target: T1, CaV2.2 (Homo sapiens, UniProt Q00975); assay: cell-based
[2] = biological target: T1, CaV2.2

T1 sequence (Q00975 whole entry, looked up): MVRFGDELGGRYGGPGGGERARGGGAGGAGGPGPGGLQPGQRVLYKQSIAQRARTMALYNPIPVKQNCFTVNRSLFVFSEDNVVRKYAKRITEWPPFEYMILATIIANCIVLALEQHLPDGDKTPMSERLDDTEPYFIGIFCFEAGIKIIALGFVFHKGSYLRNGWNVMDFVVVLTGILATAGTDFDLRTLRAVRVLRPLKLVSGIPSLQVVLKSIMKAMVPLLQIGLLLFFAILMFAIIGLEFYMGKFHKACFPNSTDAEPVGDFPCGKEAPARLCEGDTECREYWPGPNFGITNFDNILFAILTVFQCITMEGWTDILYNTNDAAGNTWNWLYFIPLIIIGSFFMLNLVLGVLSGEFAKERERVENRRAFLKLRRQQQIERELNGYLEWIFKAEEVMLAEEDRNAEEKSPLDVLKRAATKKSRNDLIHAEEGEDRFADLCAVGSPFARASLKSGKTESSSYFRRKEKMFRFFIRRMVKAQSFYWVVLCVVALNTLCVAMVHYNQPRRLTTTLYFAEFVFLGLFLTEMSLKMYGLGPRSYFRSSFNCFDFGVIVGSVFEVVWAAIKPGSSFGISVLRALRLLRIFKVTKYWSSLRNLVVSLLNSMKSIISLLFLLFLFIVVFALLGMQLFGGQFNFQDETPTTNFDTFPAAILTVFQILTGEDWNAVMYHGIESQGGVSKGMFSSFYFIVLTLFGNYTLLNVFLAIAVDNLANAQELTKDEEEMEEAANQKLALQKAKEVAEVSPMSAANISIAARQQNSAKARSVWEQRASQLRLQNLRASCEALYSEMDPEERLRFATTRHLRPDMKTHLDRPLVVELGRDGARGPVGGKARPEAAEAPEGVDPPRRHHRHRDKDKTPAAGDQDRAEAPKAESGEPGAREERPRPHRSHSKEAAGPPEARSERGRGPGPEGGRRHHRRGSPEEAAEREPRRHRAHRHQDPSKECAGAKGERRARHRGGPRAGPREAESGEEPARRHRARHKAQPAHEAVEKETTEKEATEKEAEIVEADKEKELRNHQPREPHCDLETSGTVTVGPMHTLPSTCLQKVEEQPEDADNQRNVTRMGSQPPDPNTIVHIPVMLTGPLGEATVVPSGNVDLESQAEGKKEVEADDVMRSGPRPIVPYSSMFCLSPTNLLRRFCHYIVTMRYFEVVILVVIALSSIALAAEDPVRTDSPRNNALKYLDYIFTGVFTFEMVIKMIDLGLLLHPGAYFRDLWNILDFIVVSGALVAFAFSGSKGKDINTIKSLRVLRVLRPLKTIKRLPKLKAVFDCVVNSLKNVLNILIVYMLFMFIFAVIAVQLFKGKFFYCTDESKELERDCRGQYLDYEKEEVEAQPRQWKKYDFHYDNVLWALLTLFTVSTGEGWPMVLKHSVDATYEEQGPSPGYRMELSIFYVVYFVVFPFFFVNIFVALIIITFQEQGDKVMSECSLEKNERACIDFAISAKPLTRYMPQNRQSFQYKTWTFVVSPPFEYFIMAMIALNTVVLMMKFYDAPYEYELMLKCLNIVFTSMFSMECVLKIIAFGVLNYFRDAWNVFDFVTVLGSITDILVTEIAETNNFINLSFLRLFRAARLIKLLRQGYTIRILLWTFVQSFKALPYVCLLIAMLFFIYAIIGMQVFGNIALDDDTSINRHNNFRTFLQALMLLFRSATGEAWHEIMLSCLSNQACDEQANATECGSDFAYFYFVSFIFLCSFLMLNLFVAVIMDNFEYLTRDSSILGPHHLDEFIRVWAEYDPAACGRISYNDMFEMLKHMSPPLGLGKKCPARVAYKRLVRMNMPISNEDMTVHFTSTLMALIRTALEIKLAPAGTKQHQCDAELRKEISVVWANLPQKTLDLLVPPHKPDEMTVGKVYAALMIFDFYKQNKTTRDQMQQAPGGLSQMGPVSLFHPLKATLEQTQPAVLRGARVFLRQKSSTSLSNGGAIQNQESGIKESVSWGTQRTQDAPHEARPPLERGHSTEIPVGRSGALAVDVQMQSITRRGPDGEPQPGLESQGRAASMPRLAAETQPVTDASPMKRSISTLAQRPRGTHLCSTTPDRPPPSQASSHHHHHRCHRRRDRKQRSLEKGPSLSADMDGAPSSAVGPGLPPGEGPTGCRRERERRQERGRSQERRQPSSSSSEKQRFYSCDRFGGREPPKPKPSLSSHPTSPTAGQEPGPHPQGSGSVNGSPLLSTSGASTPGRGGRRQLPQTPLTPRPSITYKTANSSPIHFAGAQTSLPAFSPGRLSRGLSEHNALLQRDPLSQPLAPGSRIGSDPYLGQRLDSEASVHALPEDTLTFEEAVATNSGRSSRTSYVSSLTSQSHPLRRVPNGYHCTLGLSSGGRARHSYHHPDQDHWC

SMILES	EC50 [1]	LogEC50 [2]	IC50 [1]
CCCC[C@@H]1NC(=O)[C@H](CC(C)C)NC(=O)[C@H](CCCNC(=N)N)NC(=O)[C@H](CO)NC(=O)[C@@H]2CSSC[C@@H]3NC(=O)[C@H](CO)NC(=O)CNC(=O)[C@H]([C@@H](C)O)NC(=O)[C@H](CSSC[C@H](NC(=O)[C@H](C)NC(=O)CNC(=O)CN)C(=O)N[C@@H](CCCCN)C(=O)NCC(=O)N[C@@H](CCCCN)C(=O)NCC(=O)N[C@@H](C)C(=O)N[C@@H](CCCCN)C(=O)N2)NC(=O)[C@H](CSSC[C@@H](C(=O)N[C@@H](C)C(=O)NCC(=O)N[C@@H](CC(N)=O)C(=O)NCC(=O)N[C@@H](CC(C)C)C(=O)O)NC(=O)[C@H](CCCCN)NC(=O)CNC(=O)[C@H](CO)NC(=O)[C@H](CCCNC(=N)N)NC3=O)NC(=O)[C@H](CC(=O)O)NC(=O)[C@H](Cc2ccc(O)cc2)NC1=O [M-6]	67.8 nM	-7.2	
CCCC[C@@H]1NC(=O)[C@H](CC(C)C)NC(=O)[C@H](CCCNC(=N)N)NC(=O)[C@H](CO)NC(=O)[C@@H]2CSSC[C@@H]3NC(=O)[C@H](CO)NC(=O)CNC(=O)[C@H]([C@@H](C)O)NC(=O)[C@H](CSSC[C@H](NC(=O)[C@H](C)NC(=O)[C@H](C)NC(=O)CNC(=O)CN)C(=O)N[C@@H](CCCCN)C(=O)NCC(=O)N[C@@H](CCCCN)C(=O)NCC(=O)N[C@@H](C)C(=O)N[C@@H](CCCCN)C(=O)N2)NC(=O)[C@H](CSSC[C@@H](C(=O)N[C@@H](C)C(=O)NCC(=O)N[C@@H](CC(N)=O)C(=O)NCC(=O)N[C@@H](CC(C)C)C(=O)O)NC(=O)[C@H](CCCCN)NC(=O)CNC(=O)[C@H](CO)NC(=O)[C@H](CCCNC(=N)N)NC3=O)NC(=O)[C@H](CC(=O)O)NC(=O)[C@H](Cc2ccc(O)cc2)NC1=O [M-7]	55.5 nM	-7.3	
CCCC[C@@H]1NC(=O)[C@H](CC(C)C)NC(=O)[C@H](CCCNC(=N)N)NC(=O)[C@H](CO)NC(=O)[C@@H]2CSSC[C@@H]3NC(=O)[C@H](CO)NC(=O)CNC(=O)[C@H]([C@@H](C)O)NC(=O)[C@H](CSSC[C@H](NC(=O)[C@H](C)NC(=O)[C@H](C)NC(=O)CNC(=O)CN)C(=O)N[C@@H](CCCCN)C(=O)NCC(=O)N[C@@H](CCCCN)C(=O)NCC(=O)N[C@@H](C)C(=O)N[C@@H](CCCCN)C(=O)N2)NC(=O)[C@H](CSSC[C@@H](C(=O)N[C@@H](C)C(=O)NCC(=O)NCC(=O)N[C@@H](CC(N)=O)C(=O)NCC(=O)N[C@@H](CC(C)C)C(=O)O)NC(=O)[C@H](CCCCN)NC(=O)CNC(=O)[C@H](CO)NC(=O)[C@H](CCCNC(=N)N)NC3=O)NC(=O)[C@H](CC(=O)O)NC(=O)[C@H](Cc2ccc(O)cc2)NC1=O [M-8]	78.7 nM	-7.1	
CCCC[C@@H]1NC(=O)[C@H](CC(C)C)NC(=O)[C@H](CCCNC(=N)N)NC(=O)[C@H](CO)NC(=O)[C@@H]2CSSC[C@@H]3NC(=O)[C@H](CO)NC(=O)CNC(=O)[C@H]([C@@H](C)O)NC(=O)[C@H](CSSC[C@H](NC(=O)[C@H](C)NC(=O)[C@H](C)NC(=O)CNC(=O)CN)C(=O)N[C@@H](CCCCN)C(=O)NCC(=O)N[C@@H](CCCCN)C(=O)NCC(=O)N[C@@H](C)C(=O)N[C@@H](CCCCN)C(=O)N2)NC(=O)[C@H](CSSC[C@@H](C(=O)N[C@@H](C)C(=O)N[C@@H](C)C(=O)NCC(=O)NCC(=O)N[C@@H](CC(N)=O)C(=O)NCC(=O)N[C@@H](CC(C)C)C(=O)O)NC(=O)[C@H](CCCCN)NC(=O)CNC(=O)[C@H](CO)NC(=O)[C@H](CCCNC(=N)N)NC3=O)NC(=O)[C@H](CC(=O)O)NC(=O)[C@H](Cc2ccc(O)cc2)NC1=O [M-9]	31.9 nM	-7.5	31.9 ± 2.6 nM
